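Following 48 hours of exposure in 96-well plates, responses at five concentrations were used to interpolate endpoints linearly. GI50 = concentration required for 50% inhibition of growth.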 The source made the active and inactive calls. Rule as the data show it: active = GI50 up to about 1.1 µM and inactive = higher. A value given as a limit tells only on which side of the number the result lay.

Some test systems named below: SNB-78; DLD-1; M19-MEL; DMS-114; KM-20L2; RXF 631; HOP-18; DMS-273; XF498.
What all share (assay): growth of human tumour cells (NCI), 48 h

With `O=C(CC(O)(c1ccccc1)c1ccc(Cl)cc1)NC(=O)c1ccccc1O` (configuration not stated), the GI50 in the test with SNB-78 is 27.1 µM (inactive); in the test with DLD-1 it was 11.8 µM (inactive); in the test on M19-MEL, 18.6 µM (inactive); in the test with DMS-114 it was 6.04 µM (inactive); in the test on KM-20L2, 14.8 µM (inactive); in the test with RXF 631, 15.6 µM (inactive). In addition, the GI50 with HOP-18 is 2.39 µM (inactive); in the test with DMS-273, 13.2 µM (inactive).

For the compound `O=C(Cc1nc2sc3c(c2c(=O)[nH]1)CCCC3)Nc1ccccc1`, the GI50 in the test with M19-MEL, in the test on DMS-114, in the test with KM-20L2, in the test with HOP-18, in the test on XF498 and in the test on DMS-273 was > 100 µM (inactive) in each case.

With `Oc1cccc(-c2cccc(O)n2)n1`, the GI50 with SNB-78, with DLD-1, with M19-MEL, in the test with DMS-114, with RXF 631 and with HOP-18 was > 100 µM (inactive) throughout. Further, in the test on DMS-273, the GI50 was > 100 µM (inactive).

Take `COc1ccc(/N=c2\ssc3c(=S)ssc23)cc1`: the GI50 was 34.2 µM (inactive) in the test with SNB-78; 15.5 µM (inactive) in the test on DLD-1; 30.2 µM (inactive) with M19-MEL; 0.959 µM (active) in the test on DMS-114; 26.4 µM (inactive) in the test with DMS-273.

For `Cc1cc(C)c2c(c1)Nc1ccccc1P2c1ccccc1` (configuration not stated), the GI50 with SNB-78 was 41.8 µM (inactive); in the test with DLD-1 it was 23.5 µM (inactive); with DMS-114, > 100 µM (inactive); in the test with KM-20L2 it was 30.6 µM (inactive); with XF498, 4.86 µM (inactive); in the test on DMS-273, 21.7 µM (inactive).

As for `CCCCCCCCCCC(O)C1CCC(C(O)CCC(O)C2CCC(CCCCCCC[C@H](O)CC3=C[C@@H](C)OC3=O)O2)O1` (some centres not stated), the GI50 is 14.9 µM (inactive) with SNB-78; 54.8 µM (inactive) in the test with DLD-1; > 76.4 µM (inactive) in the test with M19-MEL; > 100 µM (inactive) in the test on KM-20L2; > 46.2 µM (inactive) in the test on RXF 631; > 100 µM (inactive) in the test with HOP-18. The GI50 is 28.2 µM (inactive) in the test with XF498 and 41.6 µM (inactive) with DMS-273.

Regarding `CC12C3CC4C5CC(C(C53)[C@@H]1NCc1ccccc1)C42` (some centres not stated), the GI50 with SNB-78 was > 100 µM (inactive); with DLD-1 it was > 100 µM (inactive); in the test with DMS-114, > 100 µM (inactive); in the test with KM-20L2 it was 23.2 µM (inactive); in the test on RXF 631 it was 84.3 µM (inactive); in the test with HOP-18 it was > 100 µM (inactive). Besides, the GI50 in the test on XF498 and in the test on DMS-273 was > 100 µM (inactive) each time.

In the case of `COC(=O)n1c(CBr)c(Br)c2ccccc21`, the GI50 with DLD-1 is 41.5 µM (inactive); in the test on M19-MEL, 61.7 µM (inactive); with DMS-114, 36.7 µM (inactive); in the test on KM-20L2, > 100 µM (inactive); with DMS-273 it was 46.2 µM (inactive).

Consider `CCCCCCCCOCC(O)CO` (configuration not stated), for which the GI50 in the test with SNB-78, with DLD-1, in the test with M19-MEL, in the test with DMS-114, in the test with KM-20L2 and in the test on RXF 631 was > 100 µM (inactive) throughout. Besides, the GI50 with HOP-18 was > 100 µM (inactive); in the test on XF498 it was 45.9 µM (inactive); in the test with DMS-273, > 100 µM (inactive).

`NCCCCC(=O)c1cccnc1`: the GI50 with SNB-78, in the test with DLD-1, in the test with M19-MEL, in the test with DMS-114, with KM-20L2 and in the test on HOP-18 was > 100 µM (inactive) throughout. Besides, the GI50 in the test on XF498 and with DMS-273 was > 100 µM (inactive) throughout.

Take `O=c1c(Cl)c(Cl)cnn1CCc1ccncc1`: the GI50 in the test with SNB-78 was 25.1 µM (inactive); in the test on DLD-1, 14.6 µM (inactive); with M19-MEL, 15.5 µM (inactive); in the test with DMS-114 it was 14 µM (inactive); in the test on KM-20L2, 18.9 µM (inactive); in the test with HOP-18, 20 µM (inactive). For the same compound, the GI50 was 15.5 µM (inactive) with XF498 and 18.6 µM (inactive) in the test on DMS-273.

Take `Cc1ccc(NC(=O)/C(=N/NC(=O)CC#N)C2C(=O)N(c3ccccc3)N=C2N)cc1C` (configuration not stated): the GI50 with SNB-78, with DLD-1, in the test on M19-MEL, in the test on DMS-114, with KM-20L2 and with HOP-18 was > 100 µM (inactive) in each case. The GI50 in the test on XF498 and in the test on DMS-273 was > 100 µM (inactive) in each case.

Consider `CC(C)(CN1CCCCC1)C(=O)/C=C/c1ccc(Cl)cc1`, for which the GI50 with SNB-78 was 3.24 µM (inactive); in the test with DLD-1, 4.49 µM (inactive); in the test on M19-MEL, 6.76 µM (inactive); with DMS-114, 3.65 µM (inactive); with KM-20L2, 2.36 µM (inactive); in the test on RXF 631, 9.29 µM (inactive). Besides, the GI50 is 11.1 µM (inactive) in the test on HOP-18 and 3.52 µM (inactive) in the test on DMS-273.

As for `CCCCCCCCCCCCCCCCCC(=O)OCC(C[As](=O)(O)O)OC(=O)CCCCCCCCCCCCCCCCC` (configuration not stated), the GI50 with SNB-78 was 20.4 µM (inactive); in the test on DLD-1, 40 µM (inactive); in the test on M19-MEL, > 100 µM (inactive); in the test with DMS-114, 17.6 µM (inactive); with KM-20L2 it was > 100 µM (inactive); in the test on RXF 631, 36.1 µM (inactive). Further, the GI50 was > 100 µM (inactive) in the test on HOP-18, 23 µM (inactive) with XF498 and 65.3 µM (inactive) with DMS-273.

Turning to `CC(C)C1(O)C(c2ccccc2)=C(c2ccccc2)C(c2ccccc2)=C1c1ccccc1`, the GI50 in the test with SNB-78 is 11.6 µM (inactive); in the test on DLD-1, 5.87 µM (inactive); in the test on DMS-114 it was 3.4 µM (inactive); in the test with KM-20L2 it was 8.32 µM (inactive); in the test on RXF 631, 3.58 µM (inactive); in the test on HOP-18 it was 10.9 µM (inactive). In addition, the GI50 with XF498 was 2.96 µM (inactive); in the test on DMS-273, 4.46 µM (inactive).

Consider `C/C(=N/NS(=O)(=O)c1ccccc1)c1cccc[n+]1[O-]`, for which the GI50 with SNB-78, in the test with DLD-1, in the test on M19-MEL, in the test with DMS-114, with KM-20L2 and with RXF 631 was > 100 µM (inactive) in each case. Moreover, the GI50 in the test with HOP-18, with XF498 and in the test on DMS-273 was > 100 µM (inactive) throughout.

As for `CCOC(=O)CC[C@@H](NC(=O)c1ccc(N[C@@H]2c3cc4c(cc3C(c3cc(OC)c(O)c(OC)c3)C3C(=O)OC[C@@H]32)OCO4)cc1)C(=O)OCC` (some centres not stated), the GI50 in the test with SNB-78 was 0.859 µM (active); in the test on DLD-1 it was 0.123 µM (active); in the test on M19-MEL, 0.0608 µM (active); with KM-20L2 it was 0.0404 µM (active); with HOP-18, 0.249 µM (active); with DMS-273 it was 0.00566 µM (active).

Regarding `COC1=NN2C(OC)(c3ccccc3)c3c(-c4ccccc4)sc(-c4ccccc4)c3C2(c2ccccc2)S1` (configuration not stated), the GI50 in the test on SNB-78, in the test with DLD-1, with RXF 631, with XF498 and in the test with DMS-273 was > 100 µM (inactive) throughout.

For `CC1O[C@@H]2CCCCC(=O)[C@]2(C)[C@H]1C` (some centres not stated), the GI50 with SNB-78, with DLD-1, with M19-MEL, in the test with DMS-114, in the test with KM-20L2 and with RXF 631 was > 100 µM (inactive) throughout. The GI50 in the test with HOP-18, in the test with XF498 and in the test with DMS-273 was > 100 µM (inactive) in each case.

Consider `CN(C)CCC1(C2=CCCC2)CC/C(=C\c2ccc(Cl)cc2)C1=O` (configuration not stated), for which the GI50 in the test with SNB-78 is 9.59 µM (inactive); with DLD-1 it was 7.29 µM (inactive); with M19-MEL it was 5.22 µM (inactive); with DMS-114, 6.27 µM (inactive); with KM-20L2, 2.43 µM (inactive); in the test on RXF 631, 8.69 µM (inactive). The GI50 with HOP-18 is 11.9 µM (inactive); in the test on XF498, 6.11 µM (inactive); with DMS-273, 10.8 µM (inactive).

Regarding `C[n+]1ccc(-c2cc[n+](C)cc2)cc1` [PARAQUAT DICHLORIDE], the GI50 in the test with SNB-78 was > 22.3 µM (inactive); in the test with DLD-1 it was > 30.3 µM (inactive); in the test with M19-MEL, 9.42 µM (inactive); in the test on DMS-114, 8.75 µM (inactive); in the test with KM-20L2 it was 17 µM (inactive); in the test on HOP-18, > 100 µM (inactive). The GI50 in the test with XF498 was 3.74 µM (inactive); in the test with DMS-273 it was 10.5 µM (inactive).

The values above are taken from ChEMBL document CHEMBL1201862, “PubChem BioAssay data set” (2004).
